Assay results as given in ChEMBL document CHEMBL1201862, “PubChem BioAssay data set” (2004).
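Cultured in 96-well plates, cells were exposed to test compound for 48 hours across five concentrations. Abbreviation: GI50, concentration required for 50% inhibition of growth.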 Calls of active or inactive are those of the source. Rule as the data show it: active = GI50 up to about 1.1 µM and inactive = higher.

Key:
Assay in all cases: NCI-60 cell line screen, 48 h
SK-OV-3 = system: SK-OV-3
HL-60 = system: HL-60
SF-539 = system: SF-539
NCI-H23 = system: NCI-H23
CAKI-1 = system: CAKI-1
SK-MEL-2 = system: SK-MEL-2
RPMI-8226 = system: RPMI-8226
K562 = system: K562
RXF 393 = system: RXF 393
HCT-116 = system: HCT-116
HOP-92 = system: HOP-92
HCT-15 = system: HCT-15
COLO 205 = system: COLO 205
NCI-H460 = system: NCI-H460
EKVX = system: EKVX
786-0 = system: 786-0
NCI/ADR-RES = system: NCI/ADR-RES
NCI-H522 = system: NCI-H522
OVCAR-3 = system: OVCAR-3
MCF7 = system: MCF7

| SMILES | GI50 (SK-OV-3) | GI50 (HL-60) | GI50 (SF-539) | GI50 (NCI-H23) | GI50 (CAKI-1) | GI50 (SK-MEL-2) | GI50 (RPMI-8226) | GI50 (K562) | GI50 (RXF 393) | GI50 (HCT-116) | GI50 (HOP-92) | GI50 (HCT-15) [µM] | GI50 (COLO 205) | GI50 (NCI-H460) | GI50 (EKVX) | GI50 (786-0) | GI50 (NCI/ADR-RES) | GI50 (NCI-H522) | GI50 (OVCAR-3) | GI50 (MCF7) |
| --- | --- | --- | --- | --- | --- | --- | --- | --- | --- | --- | --- | --- | --- | --- | --- | --- | --- | --- | --- | --- |
| Cc1c(Cl)nc(Nc2nc3ccccc3[nH]2)nc1Cl | > 100 µM (inactive) | > 100 µM (inactive) | > 100 µM (inactive) | 92.9 µM (inactive) | 6.71 µM (inactive) | > 100 µM (inactive) | > 100 µM (inactive) | > 100 µM (inactive) | > 100 µM (inactive) | > 100 µM (inactive) | 2.06 µM (inactive) | > 100 | 72.3 µM (inactive) | > 100 µM (inactive) | 21.9 µM (inactive) | 59.4 µM (inactive) | > 100 µM (inactive) | 89.5 µM (inactive) | – | – |
| O=[N+]([O-])c1ccccc1/C=N/C12CC3CC(CC(C3)C1)C2 | > 100 µM (inactive) | 21.4 µM (inactive) | 80.2 µM (inactive) | > 100 µM (inactive) | 49.5 µM (inactive) | 65.8 µM (inactive) | 34 µM (inactive) | 29.8 µM (inactive) | > 100 µM (inactive) | 39.3 µM (inactive) | 72.8 µM (inactive) | 42.1 | > 100 µM (inactive) | > 100 µM (inactive) | > 100 µM (inactive) | 52.4 µM (inactive) | – | > 100 µM (inactive) | 32.3 µM (inactive) | – |
| CC(C)c1c2[nH]c3ccccc3c2c(C(C)C)c2[nH]c3ccccc3c12 | > 100 µM (inactive) | 16.5 µM (inactive) | > 100 µM (inactive) | > 100 µM (inactive) | > 76.6 µM (inactive) | > 100 µM (inactive) | 17.7 µM (inactive) | 7.78 µM (inactive) | > 100 µM (inactive) | > 67.3 µM (inactive) | 22.4 µM (inactive) | 16 | 51.9 µM (inactive) | > 57.7 µM (inactive) | > 100 µM (inactive) | > 52.5 µM (inactive) | – | > 78.7 µM (inactive) | > 54.1 µM (inactive) | – |
| CN1CC2=C(N=C(S)NC2c2ccccc2)/C(=C/c2ccccc2)C1 (stereo not drawn) | 22.2 µM (inactive) | > 10 µM (inactive) | 83.9 µM (inactive) | 56.2 µM (inactive) | > 100 µM (inactive) | 45.9 µM (inactive) | 46.6 µM (inactive) | 33 µM (inactive) | – | 13 µM (inactive) | – | 33 | 34.8 µM (inactive) | 32.1 µM (inactive) | 75.2 µM (inactive) | > 100 µM (inactive) | > 100 µM (inactive) | 43 µM (inactive) | 99.8 µM (inactive) | 40.4 µM (inactive) |
| c1ccc2c(c1)N=C(NC1CCCCC1)CCN2 | > 100 µM (inactive) | > 100 µM (inactive) | – | > 100 µM (inactive) | > 100 µM (inactive) | > 100 µM (inactive) | > 100 µM (inactive) | 81.3 µM (inactive) | > 100 µM (inactive) | > 100 µM (inactive) | – | > 100 | > 100 µM (inactive) | > 100 µM (inactive) | > 100 µM (inactive) | > 100 µM (inactive) | > 100 µM (inactive) | > 100 µM (inactive) | > 100 µM (inactive) | – |
| c1cc2cc(Cc3ccc4[nH]ccc4c3)ccc2[nH]1 | 19.5 µM (inactive) | 10.7 µM (inactive) | 16.5 µM (inactive) | 18.6 µM (inactive) | 17.1 µM (inactive) | 22.4 µM (inactive) | > 10 µM (inactive) | 10 µM (inactive) | 19.6 µM (inactive) | 17.6 µM (inactive) | 15.2 µM (inactive) | 13.9 | 17.5 µM (inactive) | 15.8 µM (inactive) | 15.3 µM (inactive) | 18.3 µM (inactive) | – | 15.6 µM (inactive) | 12.8 µM (inactive) | 14.1 µM (inactive) |
